Source: ChEMBL document CHEMBL1201862, “PubChem BioAssay data set” (2004)
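These data come from cells grown in 96-well plates and exposed to compound for 48 hours at five concentrations. GI50: concentration for 50% inhibition of growth.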 Activity calls are given as the source filed them. Cut-off read from the data, not from the text of the source: active = GI50 up to about 1.1 µM and inactive = higher.

Assays:
Assay in all cases: inhibition of tumour cell growth, NCI panel, 48 h
786-0 = test system: 786-0
A498 = test system: A498
A549 = test system: A549
ACHN = test system: ACHN
CAKI-1 = test system: CAKI-1
CCRF-CEM = test system: CCRF-CEM
COLO 205 = test system: COLO 205
DMS-114 = test system: DMS-114
DMS-273 = test system: DMS-273
EKVX = test system: EKVX
HCC 2998 = test system: HCC 2998
HCT-116 = test system: HCT-116
HCT-15 = test system: HCT-15
HL-60 = test system: HL-60
HOP-62 = test system: HOP-62
HOP-92 = test system: HOP-92
HT-29 = test system: HT-29
IGROV-1 = test system: IGROV-1
K562 = test system: K562
KM-20L2 = test system: KM-20L2
KM12 = test system: KM12
LOX IMVI = test system: LOX IMVI
LXFL 529 = test system: LXFL 529
M14 = test system: M14
M19-MEL = test system: M19-MEL
MOLT-4 = test system: MOLT-4
NCI-H226 = test system: NCI-H226
NCI-H23 = test system: NCI-H23
NCI-H460 = test system: NCI-H460
NCI-H522 = test system: NCI-H522
OVCAR-4 = test system: OVCAR-4
OVCAR-5 = test system: OVCAR-5
OVCAR-8 = test system: OVCAR-8
RPMI-8226 = test system: RPMI-8226
RXF 393 = test system: RXF 393
SF-268 = test system: SF-268
SF-295 = test system: SF-295
SF-539 = test system: SF-539
SK-MEL-28 = test system: SK-MEL-28
SK-MEL-2 = test system: SK-MEL-2
SK-MEL-5 = test system: SK-MEL-5
SK-OV-3 = test system: SK-OV-3
SN12C = test system: SN12C
SNB-19 = test system: SNB-19
SNB-75 = test system: SNB-75
SNB-78 = test system: SNB-78
SR = test system: SR
SW-620 = test system: SW-620
TK-10 = test system: TK-10
U-251 = test system: U-251
UACC-257 = test system: UACC-257
UACC-62 = test system: UACC-62
UO-31 = test system: UO-31
XF498 = test system: XF498
HOP-18 = test system: HOP-18
Malme-3M = test system: Malme-3M
OVCAR-3 = test system: OVCAR-3
DLD-1 = test system: DLD-1

Measured: GI50

O=C1c2ccccc2OP(=O)(OCC(F)(F)F)OC1(C(F)(F)F)C(F)(F)F (stereo not given)
inactive: 786-0 > 100 µM | A498 > 100 µM | A549 > 100 µM | ACHN > 100 µM | CAKI-1 > 100 µM | CCRF-CEM > 100 µM | COLO 205 > 100 µM | DMS-114 > 100 µM | DMS-273 > 100 µM | EKVX > 100 µM | HCC 2998 > 100 µM | HCT-116 > 100 µM | HL-60 > 100 µM | HOP-62 > 100 µM | HOP-92 > 100 µM | HT-29 > 100 µM | IGROV-1 > 100 µM | K562 > 100 µM | KM-20L2 > 100 µM | KM12 > 100 µM | LOX IMVI > 100 µM | LXFL 529 > 100 µM | M14 > 100 µM | M19-MEL > 100 µM | MOLT-4 > 100 µM | NCI-H226 > 100 µM | NCI-H23 > 100 µM | NCI-H460 > 100 µM | NCI-H522 > 100 µM | OVCAR-4 > 100 µM | OVCAR-5 > 100 µM | OVCAR-8 > 100 µM | RPMI-8226 > 100 µM | RXF 393 > 100 µM | SF-268 > 100 µM | SF-295 > 100 µM | SF-539 > 100 µM | SK-MEL-28 > 100 µM | SK-MEL-2 > 100 µM | SK-MEL-5 > 100 µM | SK-OV-3 > 100 µM | SN12C > 100 µM | SNB-19 > 100 µM | SNB-75 > 100 µM | SNB-78 > 100 µM | SR > 100 µM | SW-620 > 100 µM | TK-10 > 100 µM | U-251 > 100 µM | UACC-257 > 100 µM | UACC-62 > 100 µM | UO-31 45.3 µM | XF498 > 100 µM
> 100 µM: HCT-15

Cc1cc2c(=O)cc(-c3ccncc3)oc2c(C(N)=O)c1C
inactive: 786-0 > 100 µM | A549 > 100 µM | ACHN > 100 µM | CCRF-CEM > 100 µM | COLO 205 > 100 µM | DMS-273 > 100 µM | EKVX > 100 µM | HCC 2998 > 100 µM | HCT-116 83.4 µM | HL-60 > 100 µM | HOP-18 > 100 µM | HOP-62 > 100 µM | HOP-92 > 100 µM | HT-29 > 100 µM | IGROV-1 > 100 µM | KM-20L2 > 100 µM | LOX IMVI > 100 µM | LXFL 529 > 100 µM | M19-MEL > 100 µM | MOLT-4 > 100 µM | Malme-3M > 100 µM | NCI-H226 > 100 µM | NCI-H23 > 100 µM | NCI-H460 87.9 µM | OVCAR-3 > 100 µM | OVCAR-5 > 100 µM | OVCAR-8 > 100 µM | RPMI-8226 > 100 µM | RXF 393 > 100 µM | SF-268 > 100 µM | SF-295 > 100 µM | SF-539 > 100 µM | SK-MEL-28 > 100 µM | SK-MEL-2 > 100 µM | SK-OV-3 > 100 µM | SN12C > 100 µM | SNB-19 > 100 µM | SNB-75 > 100 µM | SNB-78 > 100 µM | SR > 100 µM | SW-620 > 100 µM | TK-10 > 100 µM | U-251 > 100 µM | UACC-257 > 100 µM | UACC-62 99.8 µM | UO-31 > 100 µM | XF498 > 100 µM
> 100 µM: HCT-15

O=C(/C=C/c1ccccc1)CC1OC(=O)c2ccccc21 (stereo not given)
> 100 µM: HCT-15
inactive: 786-0 > 100 µM | A498 > 100 µM | A549 > 100 µM | ACHN > 100 µM | CCRF-CEM 32.8 µM | COLO 205 > 100 µM | DLD-1 > 100 µM | DMS-114 46.3 µM | DMS-273 > 100 µM | EKVX > 100 µM | HCC 2998 > 100 µM | HCT-116 31.2 µM | HL-60 28.1 µM | HOP-18 14.9 µM | HOP-62 > 100 µM | HOP-92 48.8 µM | HT-29 > 100 µM | IGROV-1 80.7 µM | K562 75.5 µM | KM-20L2 > 100 µM | KM12 40.5 µM | LOX IMVI 49.7 µM | LXFL 529 46.7 µM | M14 > 100 µM | M19-MEL 45.8 µM | MOLT-4 31 µM | Malme-3M > 100 µM | NCI-H226 22.5 µM | NCI-H23 47.1 µM | NCI-H460 > 100 µM | NCI-H522 31.3 µM | OVCAR-4 > 100 µM | OVCAR-5 > 100 µM | OVCAR-8 > 100 µM | RPMI-8226 24.2 µM | RXF 393 > 100 µM | SF-268 > 100 µM | SF-295 85.5 µM | SF-539 36.1 µM | SK-MEL-28 > 100 µM | SK-MEL-2 46.3 µM | SK-MEL-5 > 100 µM | SK-OV-3 > 100 µM | SNB-19 42.1 µM | SNB-75 45.5 µM | SW-620 84.3 µM | TK-10 > 100 µM | U-251 > 100 µM | UACC-257 81.8 µM | UACC-62 26.1 µM | UO-31 > 100 µM | XF498 > 100 µM
